Tests used:
[1] = test system: IL-2; experiment: qPCR of IL-2 expression in stimulated Jurkat cells; type: cell-based, human; conditions: PHA+PMA stimulation
Method: (§1) Evaluation of PD-1 and IL-2 expression: The effect of NU7441 on the expression of PD-1, a protein with immunosuppressant function, and IL-2 was examined in Jurkat cells following stimulation with PHA+PMA and treatment with the inhibitor NU7441. qPCR analysis was performed using primers specific for PD1 and IL-2 sequences.

[2] = test system: PD-1; experiment: qPCR of PD-1 expression in stimulated Jurkat cells; type: cell-based, human; conditions: PHA+PMA stimulation
Method: as §1

## C=CC[C@@H]1/C=C(\C)C[C@H](C)C[C@H](OC)[C@H]2O[C@@](O)(C(=O)C(=O)N3CCCC[C@H]3C(=O)O[C@H](/C(C)=C/[C@@H]3CC[C@@H](O)[C@H](OC)C3)[C@H](C)[C@@H](O)CC1=O)[C@H](C)C[C@@H]2OC [FK506, Tacrolimus]
[1]
  IL-2 expression: reduced
[2]
  expression level of PD-1: significantly reduce expression

From patent US20240245696A1, “INHIBITORS OF DNA PK AND USES THEREOF” (BioVentures, LLC, priority 2017, published 2024)
